Laboratory results published in US20240277658A1, “NLRP3 ACTIVATORS FOR USE IN THE TREATMENT OF INFECTIOUS DISEASES OR CANCER BY ACTIVATING NLRP3 INFLAMMASOME” (ALBERT-LUDWIGS-UNIVERSITÄT FREIBURG, priority 2020, published 2024).
Where “and” joins values, the source holds several entries; their conditions need not be identical. Equal values may be shown once. Read-outs that look alike come from different tables or passages of the source.

Experiments:
BMDCs = assay: LDH release (lytic cell death, pyroptosis) from LPS-primed BMDCs; format: cell-based, mouse; conditions: for Average (% positive control): LDH release; for cytotoxicity at 25 µM / cytotoxicity at 50 µM / cytotoxicity at 100 µM: Mus musculus, BMDC
Protocol: (§1) This was tested in cell culture in several different in vitro assays classically used to investigate inflammasome activation. These include measuring inflammasome-dependent lytic cell death (pyroptosis) by detecting release of the cytosolic enzyme lactate dehydrogenase (LDH) using a commercial colorimetric assay and release of proinflammatory cytokines like IL-1β by enzyme-linked immunosorbent assay (ELISA), analyzing cleavage and activation of caspase-1 and IL-1β by immunoblotting and immunofluorescence imaging of ASC speck formation. Lytic cell death was determined via LDH release. Assay results for compounds are illustrated in the Tables below, wherein the concentration of the compounds tested had been 50 μM or as indicated in the table, and the concentration of the known activators has been tested with 5 μM of nigericin, 100 μM of each R837 and CL097. For classification of the activity of a given molecule, release of IL-1β was quantified as % of IL-1% of a respective control activator used for the experiment (highlighted in tables with bold letters). The compounds listes in Table 1 were classified into 4 groups depending on their ability to induce the NLRP3 inflammasome activation, assessed by % IL-1β release as compared to the positive control.
(§2) Mouse bone marrow-derived dendritic cells (BMDCs) were isolated from femurs and tibias previously described (Gross, Olaf, 2012, “Measuring the inflammasome”, Methods in molecular biology, Clifton, N.J., 844, pp. 199-222.). In brief, tibias and femurs were carefully removed and put to sterile 70% ethanol for 1 minute. Using a 22-G needle attached to a 20 ml-syringe filled with sterile flushing medium, the bone marrow was pressed through the mesh of a […] cell strainer. The cells were spun down by centrifugation at 400×g, 4° C. for 5 minutes and red blood cells lysed by resuspension and incubation for 5 minutes at room temperature in RBC lysis buffer. 9 ml of flushing medium were added and cells were again spun down by centrifugation at 400×g, 4° C. for 5 minutes. Cells were then resuspended in BMDC medium (RPMI, 10% fetal bovine serum, 1% penicillin-streptomycin100 U/ml, 20 ng/ml recombinant murine GM-CSF), counted and plated at a density of 0.5×10^6 cells ml^−1 in 10 ml medium and incubated at 37° C., 5% CO2 in a humidified incubator. After 2 days, 10 ml of fresh medium were added to the cells and after 4 days, the medium was fully exchanged to 20 ml of fresh medium. The cells were allowed to differentiate for 6 to 8 days before usage.
(§3) For canonical inflammasome activation BMDCs after 7-9 days of differentiation were harvested and counted with a Neubauer Chamber (Hecht Assistant) and the concentration was set to 1 Mio cells ml^−1. 100 μl cell suspension per well were seeded in 96-well plates. The cells were primed with 50 ng ml^−1 E. coli K12 ultra-pure LPS for 3 hours and subsequently treated with canonical inflammasome activators or experimental compounds for 3 hours if not indicated differently (incubation time FIG. 4D, 5, 7, 8, 11, 13-18: 3 h, FIG. 12: 4 h). Concentrations of the stimuli were as follows if not indicated differently: 5 μM nigericin, 100 μM imiquimod (also known as R837), 100 μM CL097, 100 μM R848, […] poly(dA:dT), 300 μg ml^−1 MSU. If an inhibitor was used before stimuli treatment, the inhibitor was added after 2.5 hours of priming and it was incubated for 30 minutes before inflammasome activation. Inhibitors were used as follows: 3 μM MCC950, 45 mM KCl, 30 μM ebselen (2-Phenyl-1,2-benzoselenazol-3-one), 5 μM cytochalasin D (see FIGS. 8, 11, 12 and 17).
(§4) All inflammasome stimulations were performed in three technical replicates for each condition. […]

NLRP3 inflammasome = biological target: T1, NLRP3 inflammasome (Mus musculus, UniProt Q8R4B8); assay: IL-1β release from LPS-primed BMDCs (ELISA) as readout of NLRP3 inflammasome activation; format: cell-based
T1 construct: endogenous in cells; host or cells: primary mouse bone marrow-derived dendritic cells (BMDCs), LPS-primed
T1 sequence (Q8R4B8 whole entry): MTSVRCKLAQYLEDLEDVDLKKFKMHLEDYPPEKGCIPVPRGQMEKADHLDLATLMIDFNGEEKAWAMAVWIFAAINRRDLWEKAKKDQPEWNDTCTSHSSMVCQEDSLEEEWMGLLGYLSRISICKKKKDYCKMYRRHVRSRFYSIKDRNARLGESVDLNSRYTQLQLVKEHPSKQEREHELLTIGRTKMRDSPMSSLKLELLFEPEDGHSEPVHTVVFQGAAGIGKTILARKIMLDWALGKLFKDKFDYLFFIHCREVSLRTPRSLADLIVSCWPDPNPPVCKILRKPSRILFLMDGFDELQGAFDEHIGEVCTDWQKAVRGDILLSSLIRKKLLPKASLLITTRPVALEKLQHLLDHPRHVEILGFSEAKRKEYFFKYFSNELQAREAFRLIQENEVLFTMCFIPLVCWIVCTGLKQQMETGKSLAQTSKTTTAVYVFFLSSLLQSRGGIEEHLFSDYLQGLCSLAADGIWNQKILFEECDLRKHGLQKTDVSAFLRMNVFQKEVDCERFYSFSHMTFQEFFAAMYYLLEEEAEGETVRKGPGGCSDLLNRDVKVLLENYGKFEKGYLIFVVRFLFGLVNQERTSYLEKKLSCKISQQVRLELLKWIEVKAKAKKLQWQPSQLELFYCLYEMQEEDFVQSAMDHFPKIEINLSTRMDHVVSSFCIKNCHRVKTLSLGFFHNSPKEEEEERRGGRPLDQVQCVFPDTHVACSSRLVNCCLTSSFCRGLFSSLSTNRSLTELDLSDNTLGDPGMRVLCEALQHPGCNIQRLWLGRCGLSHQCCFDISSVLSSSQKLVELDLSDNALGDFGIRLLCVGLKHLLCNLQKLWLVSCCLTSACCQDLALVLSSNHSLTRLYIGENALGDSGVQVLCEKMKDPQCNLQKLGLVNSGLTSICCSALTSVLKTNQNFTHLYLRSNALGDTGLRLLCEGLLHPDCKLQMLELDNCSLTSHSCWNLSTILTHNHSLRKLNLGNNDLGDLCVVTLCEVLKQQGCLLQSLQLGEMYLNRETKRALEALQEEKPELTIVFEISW
Protocol: as §1, §2, §3, §4

[1] = compound 50 μM, positive control nigericin 5 μM
[2] = compound 50 μM, LPS-primed BMDCs, read-out: Average LDH release (% of max.)
[3] = single replicates, compound 50 μM, LPS-primed BMDCs, read-out: LDH release (% of max.)
[4] = IL-1β release, compound 50 μM, positive control nigericin 5 μM
[5] = compound 50 μM, LPS-primed BMDCs
[6] = single replicates, compound 50 μM, LPS-primed BMDCs

Structure (SMILES) | Average (% positive control) (BMDCs; [1]) | cytotoxicity at 50 µM (BMDCs; [2]) | cytotoxicity at 50 µM (BMDCs; [3]) | Average (% positive control) (NLRP3 inflammasome; [4]) | Average IL-1β (NLRP3 inflammasome; [5]) | IL-1β (NLRP3 inflammasome; [6]) | further results
O=C(NCCCc1ccccc1)Nc1ccc2ncccc2c1 [EN11-13, 1-(3-phenylpropyl)-3-(quinolin-6-yl)urea] |  |  |  |  |  |  | Average (% positive control) (BMDCs; 25 μM, positive control EN22 25 μM): 15.011 % positive control; Average (% positive control) (BMDCs; 50 μM, positive control EN22 25 μM): 20.209 % positive control; Average (% positive control) (BMDCs; 100 μM, positive control EN22 25 μM): 31.963 % positive control; cytotoxicity at 25 µM (BMDCs; 25 μM, EN11 series table, read-out: Average LDH release (% of max.)): 7.63%; cytotoxicity at 25 µM (BMDCs; 25 μM, individual replicate values, EN11 series table, read-out: LDH release (% of max.)): 7.55%; cytotoxicity at 50 µM (BMDCs; 50 μM, EN11 series table, read-out: Average LDH release (% of max.)): 10.3%; cytotoxicity at 50 µM (BMDCs; 50 μM, individual replicate values, EN11 series table, read-out: LDH release (% of max.)): 10.4%; cytotoxicity at 100 µM (BMDCs; 100 μM, individual replicate values, read-out: LDH release (% of max.)): 19.3%; cytotoxicity at 100 µM (BMDCs; 100 μM, read-out: Average LDH release (% of max.)): 16.3%; Average IL-1β (NLRP3 inflammasome; 25 μM, EN11 series table): 0.011 ng/mL; IL-1β (NLRP3 inflammasome; 25 μM, individual replicate values, EN11 series table): 0.000 ng/mL and 0.011 ng/mL and 0.023 ng/mL; Average IL-1β (NLRP3 inflammasome; 50 μM, EN11 series table): 0.067 ng/mL; IL-1β (NLRP3 inflammasome; 50 μM, individual replicate values, EN11 series table): 0.067 ng/mL; Average IL-1β (NLRP3 inflammasome; 100 μM): 0.297 ng/mL; IL-1β (NLRP3 inflammasome; 100 μM, individual replicate values): 0.243 ng/mL and 0.331 ng/mL and 0.316 ng/mL; Average (% positive control) (NLRP3 inflammasome; IL-1β, 25 μM, positive control EN22 25 μM): 0.764 % positive control; Average (% positive control) (NLRP3 inflammasome; IL-1β, 50 μM, positive control EN22 25 μM): 4.560 % positive control; Average (% positive control) (NLRP3 inflammasome; IL-1β, 100 μM, positive control EN22 25 μM): 20.130 % positive control
CC(C)=CC(=O)Nc1cccc(NC(=O)Nc2ccccc2)c1 [L01.003, 3-methyl-N-{3-[(phen-ylcarbamoyl)amino]-phenyl}but-2-enamide] | 10.676 % positive control | 7.81% | 6.28% | 2.301 % positive control | 0.165 ng/mL | 0.167 ng/mL and 0.153 ng/mL and 0.175 ng/mL | 
N#Cc1ccc(NC(=O)NC(CO)c2nc(-c3ccccc3)no2)cc1 (stereo not drawn) [L01.112, 1-(4-cyanophenyl)-3-[2-hydroxy-1-(3-phenyl-1,2,4-oxadiazol-5-yl)-ethyl]urea] | 10.010 % positive control | 7.32% | 7.96% | 0.955 % positive control | 0.068 ng/mL | 0.075 ng/mL and 0.069 ng/mL and 0.061 ng/mL | 
COc1ccc(NC(=O)NCc2nc(Cc3ccccc3)no2)cc1 [L01.125, 3-[(3-benzyl-1,2,4-oxadiazol-5-yl)methyl]-1-(4-methoxyphenyl)-urea] | 9.397 % positive control | 6.87% | 7.72% | 0.988 % positive control | 0.071 ng/mL | 0.080 ng/mL and 0.071 ng/mL and 0.061 ng/mL | 
CCCCOC(=O)c1ccc(NC(=O)NC(CC(C)C)c2nc(-c3nnc[nH]3)no2)cc1 (stereo not drawn) [L01.135, butyl 4-[{{3-methyl-1-[3-(4H-1,2,4-triazol-3-yl)-1,2,4-oxadiazol-5-yl]-butyl}carbamoyl)amino]-benzoate] | 11.085 % positive control | 8.11% | 8.89% | 0.975 % positive control | 0.070 ng/mL | 0.079 ng/mL and 0.073 ng/mL and 0.057 ng/mL | 
O=C(Nc1cccc(Cl)c1)N1CCOCC1c1nc(-c2cccs2)no1 (stereo not drawn) [L01.090, N-(3-chlorophenyl)-3-[3-(thiophen-2-yl)-1,2,4-oxadiazol-5-yl]morph-oline-4-carboxamide] | 20.610 % positive control | 15.1% | 15.3% | 1.044 % positive control | 0.075 ng/mL | 0.079 ng/mL and 0.077 ng/mL and 0.069 ng/mL | 
O=C(Nc1ccccc1)Nc1ccc(NC(=O)c2ccoc2)cc1 [L01.092, N-{4-[(phenylcarbamo-yl)amino]phenyl}furan-3-carboxamide] | 20.483 % positive control | 15% | 16.4% | 15.066 % positive control | 1.080 ng/mL | 1.253 ng/mL and 1.060 ng/mL and 0.927 ng/mL | 
CC1Oc2ccc(NC(=O)Nc3ccccc3)cc2NC1=O (stereo not drawn) [L01.110, 3-(2-methyl-3-oxo-3,4-dihydro-2H-1,4-benzox-azin-6-yl)-1-phenylurea] | 46.015 % positive control | 33.7% | 34.8% | 36.599 % positive control | 2.624 ng/mL | 2.505 ng/mL and 2.943 ng/mL and 2.423 ng/mL | 
O=C(NCc1nc(-c2cccs2)no1)Nc1ccccc1 [L01.087, 1-phenyl-3-{[3-(thio-phen-2-yl)-1,2,4-oxadiazol-5-yl]meth-yl}urea] | 9.562 % positive control | 7% | 6.79% | 3.589 % positive control | 0.257 ng/mL | 0.237 ng/mL and 0.239 ng/mL and 0.296 ng/mL | 
Cc1cccc(-c2noc(CN3C(=O)CN(c4ccccc4)C3=O)n2)c1 [L01.069, 3-{[3-(3-methylphenyl)-1,2,4-oxadiazol-5-yl]-methyl}-1-phenylimid-azolidine-2,4-dione] | 12.713 % positive control | 9.3% | 9.2% | 1.941 % positive control | 0.139 ng/mL | 0.131 ng/mL and 0.138 ng/mL and 0.149 ng/mL | 
Cc1ccc(NC(=O)Nc2ccccc2)cc1NC(=O)C(F)F [L01.116, 2,2-difluoro-N-{2-meth-yl-5-[(phenylcarbamo-yl)amino]phenyl}acet-amide] | 24.685 % positive control | 18.1% | 18% | 16.099 % positive control | 1.154 ng/mL | 1.107 ng/mL and 1.192 ng/mL and 1.163 ng/mL | 
CC(C)CC(NC(=O)Nc1cccc(N2CCC(C)CC2)c1)c1nc(-c2nnc[nH]2)no1 (stereo not drawn) [L01.093, 3-{3-methyl-1-[3-(4H-1,2,4-triazol-3-yl)-1,2,4-oxadiazol-5-yl]butyl}-1-[3-(4-methylpiperidin-1-yl)phenyl]urea] | 11.139 % positive control | 8.15% | 6.68% | 0.998 % positive control | 0.072 ng/mL | 0.056 ng/mL and 0.050 ng/mL and 0.108 ng/mL | 
COc1ccccc1NC(=O)NCc1nc(-c2cccnc2)no1 [L01.043, 1-(2-methoxyphenyl)-3-{[3-(pyridin-3-yl)-1,2,4-oxadiazol-5-yl]methyl}-urea] | 11.039 % positive control | 8.08% | 8.07% | 3.697 % positive control | 0.265 ng/mL | 0.282 ng/mL and 0.272 ng/mL and 0.242 ng/mL | 
